The subject of data set [1] is linear double-stranded DNA (dsDNA) (7528 base pairs). Briefly: EMSA of nanostructure formation with dsDNA. In kind it is binding. The protocol: (§1) When a nanostructure was formed through self-assembly by reacting a peptide-molecule conjugate (SAB) with a nucleic acid material (dsDNA or mRNA), agarose gel EMSA was conducted to measure their interactions, binding ratio, stability, etc.
For this, a pTWIN1 plasmid DNA vector was purchased from New England BioLabs (Ipswich, USA), genetically recombined to express a specific protein (Rev), and then linearized with a BamH1 restriction enzyme purchased from the same company to prepare a linear double-stranded DNA (dsDNA) (7528 base pairs). The peptide-molecule conjugates of Examples 1-3 (SAB1 to SAB3) were dispersed in distilled water to prepare 20 μM aqueous solutions. The SAB1 to SAB3 aqueous solutions (20 μM, 50 μL) were sonicated for at least 5 minutes and then immediately added to the dsDNA solution (200 μL). […] A SAB2/dsDNA nanostructure was prepared by incubating the mixture overnight. Then, after centrifuging at 16,100 g for 30 minutes, the nanostructure was resuspended in deionized water. After washing twice, the nanostructure was analyzed by TEM and EMSA.
In general terms: A gel shift assay detects complexes by their altered migration in electrophoresis.

The nature of data set [2]: Coating of gold nanoparticles (TEM). The conditions noted are these: citrate-modified AuNP aqueous solution. As for the experimental part:
Colloidal gold was prepared by reducing HAuCl4 with sodium citrate. 50 mL of a 0.01% HAuCl4 (0.243 mM) aqueous solution was boiled vigorously while stirring in a round-bottom flask equipped with a reflux condenser. Then, 10 mL of a 0.1% sodium citrate aqueous solution (3.4 mM) was added to the boiling HAuCl4 solution. The color of the solution turned from yellow to deep purple and then to wine red within 3 minutes. The mixture was boiled further for 10 minutes and cooled to room temperature while continuously stirring overnight. The concentration of the colloidal gold was determined with a spectrophotometer.
It was investigated whether the gold nanoparticles (AuNP) prepared above are coated with the peptide-molecule conjugates prepared in Examples 1-3 (SAB1 to SAB3). First, the peptide-molecule conjugates of Examples 1-3 (SAB1 to SAB3) were dispersed in distilled water to prepare 20 μM aqueous solutions, respectively. After sonicating the SAB1 to SAB3 aqueous solutions (20 μM, 50 μL) for at least 5 minutes, they were immediately added to the AuNP solution (200 μL), respectively. […] After washing twice, the solution was analyzed by CD and TEM.

Data set [3] has as its system EGFP mRNA. Briefly: EMSA of nanostructure formation with EGFP mRNA. In kind it is binding. The conditions noted are these: EMSA; mRNA concentration fixed; incubated overnight. As for the experimental part:
as §1
First, the nucleic acid material of a fixed concentration (100 fmol mRNA) was reacted with the peptide-molecule conjugate (SAB) of various concentrations. Immediately before mixing with the nucleic acid material, the peptide-molecule conjugate (SAB) was sonicated for 5 minutes to prevent self-aggregation. The sonicated peptide-molecule conjugate (SAB, 5 μL) was added to the nucleic acid material ([…]) and a nanostructure was prepared by adding distilled water. The sample was prepared by snap cooling. Specifically, after heating at 70° C. for 10 minutes and snap-cooling on ice, the prepared sample was stored at room temperature. The stored sample was mixed with 2 μL of 60% glycerol. Electrophoresis was performed at 100 V for 60 minutes on 0.8% agarose gel using 1×TBE. The band was observed after staining with SYBR™ Gold nucleic acid gel stain (Invitrogen, Waltham, USA).
After sonicating the peptide-molecule conjugate (SAB-gn, n=1 to 6) aqueous solution for 5 minutes, it was immediately mixed with an EGFP mRNA (200 μL) solution. […] An […] nanostructure was prepared as follows by mixing the peptide-molecule conjugate (SAB-gn, n=1 to 6) with the EGFP mRNA. […] The EGFP mRNA and the peptide-molecule conjugate (SAB-gn, n=1 to 6) were mixed at a charge ratio (+/−) of 0, 0.008, 0.016, 0.031, 0.063, 0.125, 0.25, 0.5, 1, 2, 4, 8, 16, 32 or 50.
After incubating the mixture solution overnight and centrifuging at 16,100 g for 30 minutes, the mixture was resuspended in deionized water. After washing twice, the resulting nanostructure was analyzed by EMSA.
After incubating the mixture solution overnight and centrifuging at 16,100 g for 30 minutes, the mixture was resuspended in deionized water.
After heating the mixed solution for 10 minutes at 70° C., it was immediately snap-cooled on ice. RiboRuler Low Range RNA Ladder and RiboRuler High Range RNA Ladder (Thermo Scientific, Waltham, USA) were used on the two lanes on the left side of agarose gel in order to identify the relative locations of the EGFP mRNA bands. The bands of the RiboRuler Low Range RNA Ladder correspond to 1000, 800, 600, 400, 300, 200 and 100 bases, from top to bottom, and the bands of the RiboRuler High Range RNA Ladder correspond to 6000, 4000, 3000, 2000, 1500, 1000, 500 and 200 bases, from top to bottom. Then, the mixtures with charge ratios (+/−) of 0, 0.031, 0.063, 0.125, 0.25, 0.5, 1, 2, 4, 8 and 16 were loaded in sequence.
After heating the mixed solution for 10 minutes at 70° C., it was immediately snap-cooled on ice. RiboRuler High Range RNA Ladder (Thermo Scientific, Waltham, USA) was used on the left side of agarose gel in order to identify the relative locations of the EGFP mRNA bands. The bands of the RiboRuler High Range RNA Ladder correspond to 6000, 4000, 3000, 2000, 1500, 1000, 500 and 200 bases, from top to bottom. Then, the samples were loaded with charge ratios (+/−) of 00, 0.063, 0.125, 0.25, 0.5, 1, 2, 4, 8, 16 and 32 in sequence.

1 substance from patent US20240116986A1, “FUSION PEPTIDES CONTAINING DIMERIC ALPHA-HELICES, PEPTIDE-MOLECULARCONJUGATES CONTAINING THE SAME AND NUCLEIC ACID DELIVERY COMPOSITIONSCONTAINING THE SAME” (Artprobio Co., Ltd., priority 2022, published 2024) can be followed below.

Consider “Ac-(PEG8)-AELAALEAELAALE-(Ahx)2-K-(Ahx)2-KLAALKAKLAALKAG-(PEG8)-NH2 [SAB2]”, for which the “nanostructure formation with dsDNA” value in data set [1] was “best result”. Also, in data set [1] (dsDNA concentration fixed), the “charge ratio (+/−) from which delay of EMSA band was observed” value is 0.031 and the “charge ratio at which SAB2/dsDNA nanostructure was prepared through self-assembly” value is on record as 0.5. For the same substance, in data set [2], the “dispersibility of coated gold nanoparticles” value is given as “precipitates were formed due to aggregation of the gold nanoparticles”. The “+/− (optimum charge ratio of EGFP mRNA and conjugate showing completely delayed electrophoretic mobility)” value in data set [3] amounted to 30.
